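Dose response: 5 concentrations. Exposure: 48 h. Format: 96-well plates. Endpoint: linear interpolation; highest concentration if not reached. At the GI50, growth is halved.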 Calls of active or inactive are those of the source. Cut-off read from the data, not from the text of the source: active = GI50 up to about 1.1 µM and inactive = higher.
What was measured:
Test in all cases: inhibition of tumour cell growth, NCI panel, 48 h
[1] = system: 786-0
[2] = system: BT-549
[3] = system: DU-145
[4] = system: HCC 2998
[5] = system: HOP-62
[6] = system: HT-29
[7] = system: KM12
[8] = system: LOX IMVI
[9] = system: Malme-3M
[10] = system: NCI/ADR-RES
[11] = system: OVCAR-4
[12] = system: OVCAR-8
[13] = system: SK-MEL-28
[14] = system: SK-MEL-2
[15] = system: SW-620
[16] = system: TK-10
[17] = system: UACC-62
[18] = system: UO-31
[19] = system: A498

SMILES	GI50 [1]	GI50 [2]	GI50 [3]	GI50 [4]	GI50 [5]	GI50 [6]	GI50 [7]	GI50 [8]	GI50 [9]	GI50 [10]	GI50 [11]	GI50 [12]	GI50 [13]	GI50 [14]	GI50 [15]	GI50 [16]	GI50 [17]	GI50 [18]	GI50 [19]
NS(=O)(=O)c1ccc(NC(NC(=O)C(C(F)(F)F)C(F)(F)F)(C(F)(F)F)C(F)(F)F)cc1	> 100 µM (inactive)	> 100 µM (inactive)	> 100 µM (inactive)	> 100 µM (inactive)	> 100 µM (inactive)	> 100 µM (inactive)	> 100 µM (inactive)	> 100 µM (inactive)	> 100 µM (inactive)	> 100 µM (inactive)	> 100 µM (inactive)	> 100 µM (inactive)	> 100 µM (inactive)	> 100 µM (inactive)	> 100 µM (inactive)	0.305 µM (active)	> 100 µM (inactive)	> 100 µM (inactive)	
Cc1ccccc1N/C(N)=N/C#N	> 100 µM (inactive)	> 100 µM (inactive)	> 100 µM (inactive)	> 100 µM (inactive)	> 100 µM (inactive)	> 100 µM (inactive)		> 100 µM (inactive)	> 100 µM (inactive)	> 100 µM (inactive)	> 100 µM (inactive)	> 100 µM (inactive)	> 100 µM (inactive)	> 100 µM (inactive)	> 100 µM (inactive)	> 100 µM (inactive)	> 100 µM (inactive)	> 100 µM (inactive)	
C[N+]1([O-])CCC(O)(C2CC2)CC1 (stereo unspecified)	> 100 µM (inactive)	> 100 µM (inactive)	> 100 µM (inactive)	> 100 µM (inactive)	> 100 µM (inactive)	> 100 µM (inactive)	> 100 µM (inactive)	> 100 µM (inactive)	> 100 µM (inactive)	> 100 µM (inactive)	> 100 µM (inactive)	> 100 µM (inactive)	0.0399 µM (active)	> 100 µM (inactive)	> 100 µM (inactive)	> 100 µM (inactive)	> 100 µM (inactive)	> 100 µM (inactive)	
CCOC(=O)CC(c1ccccc1)C(C)(C(=O)OCC)C(=O)OCC (stereo unspecified)	> 100 µM (inactive)	70.1 µM (inactive)	> 100 µM (inactive)	> 100 µM (inactive)	> 100 µM (inactive)	> 100 µM (inactive)	> 100 µM (inactive)	> 100 µM (inactive)	> 100 µM (inactive)	> 100 µM (inactive)	> 100 µM (inactive)	> 100 µM (inactive)	> 100 µM (inactive)	> 100 µM (inactive)	> 100 µM (inactive)	> 100 µM (inactive)	> 100 µM (inactive)	33.3 µM (inactive)	
CC1=C2CC(C)(C)CC(=O)C2(C)CCC1=O (stereo unspecified)	> 100 µM (inactive)	> 100 µM (inactive)	> 100 µM (inactive)	> 100 µM (inactive)	> 100 µM (inactive)	> 100 µM (inactive)	> 100 µM (inactive)	> 100 µM (inactive)	> 100 µM (inactive)	> 100 µM (inactive)	> 100 µM (inactive)	> 100 µM (inactive)	> 100 µM (inactive)	> 100 µM (inactive)	> 100 µM (inactive)	> 100 µM (inactive)	> 100 µM (inactive)	> 100 µM (inactive)	
COC(=O)CNC(=O)C(Cc1ccccc1)NC(=O)c1ccc(-c2ccc(Cl)cc2Cl)o1 (stereo unspecified)	16.9 µM (inactive)	26.4 µM (inactive)	37.6 µM (inactive)		26.8 µM (inactive)	14.4 µM (inactive)	24.4 µM (inactive)	23.5 µM (inactive)	21.5 µM (inactive)	21.8 µM (inactive)	21.5 µM (inactive)	25.1 µM (inactive)	43.8 µM (inactive)	28.3 µM (inactive)	34.2 µM (inactive)	24.7 µM (inactive)	13.6 µM (inactive)	52.6 µM (inactive)	10.7 µM (inactive)
Nc1c2ccccc2nc2ccc(C(=O)Nc3ccc(S(N)(=O)=O)cc3)cc12	> 100 µM (inactive)	> 100 µM (inactive)	> 100 µM (inactive)	> 100 µM (inactive)	> 100 µM (inactive)	> 100 µM (inactive)	> 100 µM (inactive)	> 100 µM (inactive)	> 100 µM (inactive)	> 100 µM (inactive)	> 100 µM (inactive)	> 100 µM (inactive)	> 100 µM (inactive)	> 100 µM (inactive)	> 100 µM (inactive)	> 100 µM (inactive)	> 100 µM (inactive)	> 100 µM (inactive)	
COc1ccc2nc3cc(Cl)ccc3c(NCCCNCc3cc(OC)c(OC)c(OC)c3)c2c1	1.4 µM (inactive)	1.76 µM (inactive)	1.7 µM (inactive)	1.75 µM (inactive)	1.32 µM (inactive)	1.01 µM (active)	1.64 µM (inactive)	1.54 µM (inactive)	2.23 µM (inactive)	2.08 µM (inactive)	1.78 µM (inactive)	1.77 µM (inactive)	1.67 µM (inactive)	1.91 µM (inactive)	0.733 µM (active)	1.73 µM (inactive)	1.91 µM (inactive)	1.65 µM (inactive)	
COC(=O)C1C2CCCN2OC1(C)CO (stereo unspecified)	> 100 µM (inactive)	> 100 µM (inactive)	> 100 µM (inactive)		> 100 µM (inactive)	> 100 µM (inactive)	> 100 µM (inactive)	> 100 µM (inactive)		> 100 µM (inactive)	> 100 µM (inactive)	> 100 µM (inactive)	> 100 µM (inactive)	> 100 µM (inactive)	> 100 µM (inactive)	> 100 µM (inactive)	> 100 µM (inactive)	> 100 µM (inactive)	> 100 µM (inactive)
Cc1ccccc1N(C)S(=O)(=O)c1ccccc1[N+](=O)[O-]	87.3 µM (inactive)	33 µM (inactive)	> 100 µM (inactive)	51.3 µM (inactive)	48.2 µM (inactive)	32.2 µM (inactive)	55.7 µM (inactive)	55.3 µM (inactive)	> 100 µM (inactive)	25.1 µM (inactive)	67.6 µM (inactive)	75 µM (inactive)	54.1 µM (inactive)	47.5 µM (inactive)	84.1 µM (inactive)	> 100 µM (inactive)	38.8 µM (inactive)	34.3 µM (inactive)	
Fc1cccc(F)c1C1SCc2nc3cc(Cl)ccc3n21 (stereo unspecified)	25.7 µM (inactive)	21.9 µM (inactive)	68.5 µM (inactive)	22.7 µM (inactive)	> 100 µM (inactive)	15.2 µM (inactive)	22.8 µM (inactive)	18.5 µM (inactive)	17 µM (inactive)	24.2 µM (inactive)	35.9 µM (inactive)	58.7 µM (inactive)	50.8 µM (inactive)	30.6 µM (inactive)	38.7 µM (inactive)	> 100 µM (inactive)	37.9 µM (inactive)	19.2 µM (inactive)	

From ChEMBL document CHEMBL1201862, “PubChem BioAssay data set” (2004)
